By pIC50 is commonly meant −log10 of the IC50, conventionally taken in molar units. A high value points to a small IC50.

Data on 31 compounds can be found in patent US10112899B2 (ViiV HEALTHCARE UK LIMITED, priority 2014, dated 2018).

Each structure is given as a SMILES string. pIC50: −log10 of the molar value.

The test concerns HIV in the HTLV-1 transformed cell line MT-4. Kind of test: organism not typed. The format is cell-based. As to conditions: MT4, 96 h, MT-4 cells; luciferase/cell titer glo readout after 96 hours; 10 point dose response. For orientation: Cellular ATP, detected with luciferase, serves as a proxy for viable cell number.
Take `COc1cccc(C(=O)N2Cc3c(C)c(-c4ccc(C)cc4)c([C@H](OC(C)(C)C)C(=O)O)c(C)c3C2)c1F` [Example 253, (S)-2-(tert-butoxy)-2-(2-(2-fluoro-3-methoxybenzoyl)-4,7-dimethyl-6-(p-tolyl)isoindolin-5-yl)acetic acid]: the pIC50 was 7.92.
Compound `Cc1ccc(-c2c(C)c3c(c(C)c2[C@H](OC(C)(C)C)C(=O)O)CN(C(=O)c2ccc(F)cc2)C3)cc1` [Example 254, (S)-2-(tert-butoxy)-2-(2-(4-fluorobenzoyl)-4,7-dimethyl-6-(p-tolyl)isoindolin-5-yl)acetic acid] showed a pIC50 of 8.40.
Turning to `Cc1ccc(-c2c(C)c3c(c(C)c2[C@H](OC(C)(C)C)C(=O)O)CN(C(=O)c2ccc4c(c2)OCCO4)C3)cc1` [Example 255, (S)-2-(tert-butoxy)-2-(2-(2,3-dihydrobenzo[b][1,4]dioxine-6-carbonyl)-4,7-dimethyl-6-(p-tolyl)isoindolin-5-yl)acetic acid], the pIC50 is 7.89.
To `Cc1ccc(-c2c(C)c3c(c(C)c2[C@H](OC(C)(C)C)C(=O)O)CN(C(=O)c2ccc4c(c2)B(O)OC4)C3)cc1` [Example 256, (S)-2-(tert-butoxy)-2-(2-(1-hydroxy-1,3-dihydrobenzo[c][1,2]oxaborole-6-carbonyl)-4,7-dimethyl-6-(p-tolyl)isoindolin-5-yl)acetic acid] belongs 6.13; to `Cc1ccc(-c2c(C)c3c(c(C)c2[C@H](OC(C)(C)C)C(=O)O)CN(C(=O)c2cccc(B(O)O)c2)C3)cc1` [Example 257, (S)-2-(2-(3-boronobenzoyl)-4,7-dimethyl-6-(p-tolyl)isoindolin-5-yl)-2-(tert-butoxy)acetic acid], 6.87.
In turn, `COc1cccc(C(=O)N2Cc3c(C)c(-c4ccc(C)cc4)c([C@H](OC(C)(C)C)C(=O)O)c(C)c3C2)c1C` [Example 258, (S)-2-(tert-butoxy)-2-(2-(3-methoxy-2-methylbenzoyl)-4,7-dimethyl-6-(p-tolyl)isoindolin-5-yl)acetic acid] had a pIC50 of 7.82.
In turn, `Cc1ccc(-c2c(C)c3c(c(C)c2[C@H](OC(C)(C)C)C(=O)O)CN(C(=O)c2cccnc2C)C3)cc1` [Example 259, (S)-2-(tert-butoxy)-2-(4,7-dimethyl-2-(2-methylnicotinoyl)-6-(p-tolyl)isoindolin-5-yl)acetic acid] had a pIC50 of 7.70.
On to `Cc1ccc(-c2c(C)c3c(c(C)c2[C@H](OC(C)(C)C)C(=O)O)CN(C(=O)c2cnccc2C)C3)cc1` [Example 260, (S)-2-(tert-butoxy)-2-(4,7-dimethyl-2-(4-methylnicotinoyl)-6-(p-tolyl)isoindolin-5-yl)acetic acid], for which the pIC50 was 7.82. The pIC50 values of the last two compounds are within 0.2 log units of each other.
As to `Cc1ccc(-c2c(C)c3c(c(C)c2[C@H](OC(C)(C)C)C(=O)O)CN(C(=O)c2ccc(F)c(F)c2)C3)cc1` [Example 261, (S)-2-(tert-butoxy)-2-(2-(3,4-difluorobenzol)-4,7-dimethyl-6-(p-tolyl)isoindolin-5-yl)acetic acid], the pIC50 is 8.40.
With `Cc1ccc(-c2c(C)c3c(c(C)c2[C@H](OC(C)(C)C)C(=O)O)CN(C(=O)c2cc(F)ccc2F)C3)cc1` [Example 262, (S)-2-(tert-butoxy)-2-(2-(2,5-difluorobenzoyl)-4,7-dimethyl-6-(p-tolyl)isoindolin-5-yl)acetic acid], the pIC50 is 8.30.
To `Cc1ccc(-c2c(C)c3c(c(C)c2[C@H](OC(C)(C)C)C(=O)O)CN(C(=O)c2cc(Cl)ccc2C)C3)cc1` [Example 263, (S)-2-(tert-butoxy)-2-(2-(5-chloro-2-methylbenzoyl)-4,7-dimethyl-6-(p-tolyl)isoindolin-5-yl)acetic acid] belongs 8.22; to `Cc1ccc(-c2c(C)c3c(c(C)c2[C@H](OC(C)(C)C)C(=O)O)CN(C(=O)c2ccc(Cl)c(F)c2)C3)cc1` [Example 264, (S)-2-(tert-butoxy)-2-(2-(4-chloro-3-fluorobenzoyl)-4,7-dimethyl-6-(p-tolyl)isoindolin-5-yl)acetic acid], 8.05; to `Cc1ccc(-c2c(C)c3c(c(C)c2[C@H](OC(C)(C)C)C(=O)O)CN(C(=O)c2ccc4c(c2)OCO4)C3)cc1` [Example 265, (S)-2-(2-(benzo[d][1,3]dioxole-5-carbonyl)-4,7-dimethyl-6-(p-tolyl)isoindolin-5-yl)-2-(tert-butoxy)acetic acid], 8.40.
For `Cc1ccc(-c2c(C)c3c(c(C)c2[C@H](OC(C)(C)C)C(=O)O)CN(C(=O)c2cc(F)cc(C(N)=O)c2)C3)cc1` [Example 266, (S)-2-(tert-butoxy)-2-(2-(3-carbamoyl-5-fluorobenzoyl)-4,7-dimethyl-6-(p-tolyl)isoindolin-5-yl)acetic acid], the negative logarithm of the IC50 (pIC50) was 6.90.
`Cc1ccc(-c2c(C)c3c(c(C)c2[C@H](OC(C)(C)C)C(=O)O)CN(C(=O)c2cc(F)cc(C(=O)O)c2)C3)cc1` [Example 267, (S)-3-(5-(tert-butoxy(carboxy)methyl)-4,7-dimethyl-6-(p-tolyl)isoindoline-2-carbonyl)-5-fluorobenzoic acid] showed a pIC50 of 5.46.
On to `Cc1ccc(-c2c(C)c3c(c(C)c2[C@H](OC(C)(C)C)C(=O)O)CN(C(=O)c2cccnc2)C3)cc1` [Example 268, (S)-2-(tert-butoxy)-2-(4,7-dimethyl-2-nicotinoyl-6-(p-tolyl)isoindolin-5-yl)acetic acid], for which the pIC50 was 7.85.
Regarding `Cc1ccc(-c2c(C)c3c(c(C)c2[C@H](OC(C)(C)C)C(=O)O)CN(C(=O)c2cncs2)C3)cc1` [Example 269, (S)-2-(tert-butoxy)-2-(4,7-dimethyl-2-(thiazole-5-carbonyl)-6-(p-tolyl)isoindolin-5-yl)acetic acid], the pIC50 is 6.94.
As for `Cc1ccc(-c2c(C)c3c(c(C)c2[C@H](OC(C)(C)C)C(=O)O)CN(C(=O)c2ccc(Cl)cc2)C3)cc1` [Example 270, (S)-2-(tert-butoxy)-2-(2-(4-chlorobenzoyl)-4,7-dimethyl-6-(p-tolyl)isoindolin-5-yl)acetic acid], the pIC50 was 8.40.
As for `Cc1ccc(-c2c(C)c3c(c(C)c2[C@H](OC(C)(C)C)C(=O)O)CN(C(=O)c2cc(Cl)cc(Cl)c2)C3)cc1` [Example 271, (S)-2-(tert-butoxy)-2-(2-(3,5-dichlorobenzoyl)-4,7-dimethyl-6-(p-tolyl)isoindolin-5-yl)acetic acid], the pIC50 was 8.10.
In turn, `Cc1ccc(-c2c(C)c3c(c(C)c2[C@H](OC(C)(C)C)C(=O)O)CN(C(=O)c2cocn2)C3)cc1` [Example 272, (S)-2-(tert-butoxy)-2-(4,7-dimethyl-2-(oxazole-4-carbonyl)-6-(p-tolyl)isoindolin-5-yl)acetic acid] had a pIC50 of 7.07. Against the preceding compound, the pIC50 is 1.03 log units lower.
Compound `Cc1ccc(-c2c(C)c3c(c(C)c2[C@H](OC(C)(C)C)C(=O)O)CN(C(=O)c2ccccn2)C3)cc1` [Example 273, (S)-2-(tert-butoxy)-2-(4,7-dimethyl-2-picolinoyl-6-(p-tolyl)isoindolin-5-yl)acetic acid] showed a pIC50 of 8.40.
The compound `Cc1ccc(-c2c(C)c3c(c(C)c2[C@H](OC(C)(C)C)C(=O)O)CN(C(=O)c2cnc(-c4ccccc4)o2)C3)cc1` [Example 274, (S)-2-(tert-butoxy)-2-(4,7-dimethyl-2-(2-phenyloxazole-5-carbonyl)-6-(p-tolyl)isoindolin-5-yl)acetic acid] gave a pIC50 of 6.53.
In the case of `Cc1ccc(-c2c(C)c3c(c(C)c2[C@H](OC(C)(C)C)C(=O)O)CN(C(=O)c2cccc4c2OCO4)C3)cc1` [Example 275, (S)-2-(2-(benzo[d][1,3]dioxole-4-carbonyl)-4,7-dimethyl-6-(p-tolyl)isoindolin-5-yl)-2-(tert-butoxy)acetic acid], the pIC50 was 8.30.
As to `Cc1ccc(-c2c(C)c3c(c(C)c2[C@H](OC(C)(C)C)C(=O)O)CN(C(=O)c2ccc(Cl)c(Cl)c2)C3)cc1` [Example 276, (S)-2-(tert-butoxy)-2-(2-(3,4-dichlorobenzoyl)-4,7-dimethyl-6-(p-tolyl)isoindolin-5-yl)acetic acid], the pIC50 is 7.80. Compared with the last compound, the pIC50 is 0.50 log units lower.
`Cc1ccc(-c2c(C)c3c(c(C)c2[C@H](OC(C)(C)C)C(=O)O)CN(C(=O)c2cc(F)c(Cl)c(Cl)c2)C3)cc1` [Example 277, (S)-2-(tert-butoxy)-2-(2-(3,4-dichloro-5-fluorobenzoyl)-4,7-dimethyl-6-(p-tolyl)isoindolin-5-yl)acetic acid]: the negative logarithm of the IC50 (pIC50) was 7.85. This pIC50 and that of the compound before are within 0.2 log units of each other.
With `Cc1ccc(-c2c(C)c3c(c(C)c2[C@H](OC(C)(C)C)C(=O)O)CN(C(=O)c2cc(C)c(F)c(F)c2)C3)cc1` [Example 278, (S)-2-(tert-butoxy)-2-(2-(3,4-difluoro-5-methylbenzoyl)-4,7-dimethyl-6-(p-tolyl)isoindolin-5-yl)acetic acid], the pIC50 was 8.30.
`Cc1ccc(-c2c(C)c3c(c(C)c2[C@H](OC(C)(C)C)C(=O)O)CN(C(=O)c2cc(F)c(F)c(F)c2)C3)cc1` [Example 279, (S)-2-(tert-butoxy)-2-(4,7-dimethyl-6-(p-tolyl)-2-(3,4,5-trifluorobenzoyl)isoindolin-5-yl)acetic acid]: the pIC50 is 8.40.
In turn, `Cc1ccc(-c2c(C)c3c(c(C)c2[C@H](OC(C)(C)C)C(=O)O)CN(C(=O)c2cc(F)c(F)c(Cl)c2)C3)cc1` [Example 280, (S)-2-(tert-butoxy)-2-(2-(3-chloro-4,5-difluorobenzoyl)-4,7-dimethyl-6-(p-tolyl)isoindolin-5-yl)acetic acid] showed a negative-log IC50 (pIC50) of 8.10.
In the case of `Cc1ccc(-c2c(C)c3c(c(C)c2[C@H](OC(C)(C)C)C(=O)O)CN(C(=O)c2cc(Cl)c(F)c(Cl)c2)C3)cc1` [Example 281, (S)-2-(tert-butoxy)-2-(2-(3,5-dichloro-4-fluorobenzoyl)-4,7-dimethyl-6-(p-tolyl)isoindolin-5-yl)acetic acid], the negative-log IC50 (pIC50) was 7.77.
`Cc1ccc(-c2c(C)c3c(c(C)c2[C@H](OC(C)(C)C)C(=O)O)CN(C(=O)c2cc(F)c(Cl)c(F)c2)C3)cc1` [Example 282, (S)-2-(tert-butoxy)-2-(2-(4-chloro-3,5-difluorobenzoyl)-4,7-dimethyl-6-(p-tolyl)isoindolin-5-yl)acetic acid] had a pIC50 of 8.15. This pIC50 is 0.38 log units higher than that of the compound before.
`Cc1ccc(-c2c(C)c3c(c(C)c2[C@H](OC(C)(C)C)C(=O)O)CN(C(=O)c2ccc(C)nc2)C3)cc1` [Example 283, (S)-2-(tert-butoxy)-2-(4,7-dimethyl-2-(6-methylnicotinoyl)-6-(p-tolyl)isoindolin-5-yl)acetic acid] showed a pIC50 of 7.89. Compared with the last compound, the pIC50 is 0.26 log units lower.
